The source of these data is patent publication US6642217B2, “Triterpenes having human antifungal and antiyeast activity” (Naturtek, LLC, priority 2000, dated 2003).

For experiment [1], the system named is Microsporum canis. In words: Direct addition method, solid compound in Sabouraud dextrose agar. The class given is cell-based. The settings on record: against Microsporum canis. In a few lines:
(§1)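 Solid compound added to molten Sabouraud dextrose agar at 45 °C to a final 4 mg/ml, then set as slants and inoculated with fungus. Incubated at 25-28 °C for 10-12 days, with growth recorded every second day and read on day 12.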

In the next experiment the test system is Microsporum audouinni. The description is as above. The class given is cell-based, Microsporum audouinii. Set-up: key to Fungal growth: +++: Maximum Fungal Growth; ++: Moderate Fungal Growth; +: Minimum Fungal Growth; +/−: Very little Fungal Growth; −: No Fungal Growth. The settings on record: 4 mg/mL of agar; 12th day after inoculation. In a few lines:
as §1

Experiment [2] concerns Pityrosporum ovale. In words: Direct addition into the Pityrosporum agar. On the set-up: key to Pityrosporum ovale growth: +++: Maximum Growth; ++: Moderate Growth; +: Minimum Growth; +/−: Very Little Growth; −: No Growth. The class given is cell-based. The settings on record: 4 mg/ml in the agar; 18 hours after inoculation. How it is done: Direct addition method. Sabouraud dextrose agar was prepared according to the manufacturer's instructions and 5.0 ml was dispensed in each 100×25 mm tube. The tubes were autoclaved. To each tube containing 5.0 ml of liquid agar at 45° C., 20 mg of solid test compound was added, to give a final concentration of 4 mg/ml. The agar was solidified in slants. The fungal cultures were then innoculated. […]

Another experiment has as its system Epidermophyton floccosum. The experiment is described as follows: Direct addition method, solid compound in Sabouraud dextrose agar. Set-up: key: +++: Maximum Fungal Growth; ++: Moderate Fungal Growth; +: Minimum Fungal Growth; +/−: Very little Fungal Growth; −: No Fungal Growth. The settings on record: 4 mg/mL of agar; 12th day after inoculation. The class given is cell-based. The gist of the method: as §1

The subject of experiment [3] is Pityrosporum ovale. Described as above. The class given is cell-based. On the set-up: key: +++: Maximum Fungal Growth; ++: Moderate Fungal Growth; +: Minimum Fungal Growth; +/−: Very little Fungal Growth; −: No Fungal Growth. The settings on record: 4 mg/mL of agar; 12th day after inoculation. In a few lines: as §1
In a further experiment the test system is Trichophyton rubrum. The description is as above. The class given is cell-based. On the set-up: key: +++: Maximum Fungal Growth; ++: Moderate Fungal Growth; +: Minimum Fungal Growth; +/−: Very little Fungal Growth; −: No Fungal Growth. The settings on record: 4 mg/mL of agar; 12th day after inoculation. In a few lines:
as §1

The test system of experiment [4] is Microsporum canis. The description is as above. The class given is cell-based. Set-up: key: +++: Maximum Fungal Growth; ++: Moderate Fungal Growth; +: Minimum Fungal Growth; +/−: Very Little Fungal Growth; −: No Fungal Growth. The settings on record: 4 mg/mL of agar; 12th day after inoculation. How it is done:
Direct addition method. Sabouraud dextrose agar was prepared according to the manufacturer's instructions and 5.0 ml was dispensed in each 100×25 mm tube. The tubes were autoclaved. To each tube containing 5.0 ml of liquid agar at 45° C., 20 mg of solid test compound was added, to give a final concentration of 4 mg/ml. The agar was solidified in slants. The fungal cultures were then innoculated. The slants were incubated at 25-28 ° C. for 10-12 days, and the growth of the fungus was recorded every second day. The results in Table 2 indicate growth at the 12th day of inoculation.

Turning to `C=C(C)[C@@H]1CC[C@]2(COC(=O)CN)CC[C@]3(C)[C@H](CC[C@@H]4[C@@]5(C)CC[C@H](OC(=O)CN)C(C)(C)[C@@H]5CC[C@]43C)[C@@H]12` [Betulin-3,28-diglycine], the “best anti-fungal or anti-yeast activity by the direct addition method” value in the experiment on Microsporum canis [1] is “against Microsporum canis”. In addition, the Fungal growth entry is “+” in the experiment on Microsporum audouinni; “−” in the experiment on Epidermophyton floccosum; “−” in the experiment with Pityrosporum ovale [3]; “+” with Trichophyton rubrum; “+/−” in the experiment on Microsporum canis [4]. Also, the Pityrosporum ovale growth result in the experiment on Pityrosporum ovale [2] was “+”.
